Read-outs that look alike come from different tables or passages of the source. Blank lines part the entries; values can stand above or below the substance they belong to. Bridge positions count the residues as written; N and C are the ends. Ends that are not written are not given here. I, II: the chains in the order shown.
How the values were obtained:
[1] = molecular target: T1, human α-thrombin (Homo sapiens, UniProt P00734); experiment: ELISA-type assay on wells coated with thrombin; assay type: binding; details: read-out: Dissociation constant estimated
T1 construct: concentrations of human α-thrombin ranging from 0 to 100 nM
Method: Binding to thrombin was evaluated in an ELISA-type assay. Wells of a 96 well plate were coated with 100 μL of 30 μg/mL human α-thrombin and incubated at 4 C overnight. The plate was washed twice with DDI H2O and passivated with 3% BSA in IX PBS buffer for 1 hour. The plate was shaken out and 50 μL of varying concentrations of analyte (DNA tile synbody, DNA tile with each aptamer with the other not present, and each aptamer alone, respectively) were incubated at RT for 1 hour. DNA tiles were biotin-modified at the 5′ end of one of the distal DNA strands 346 (see FIG. 26(a)). The plate was rinsed 10 times in IXPBS and 50 μL of 1:1000 dilution of streptavidin-HRP in 0.1% BSA in IX PBS was pipetted and incubated for 1 hour at RT. The plate was again rinsed and 50 μL of TMB was added and incubated at RT for 15 minutes. 50 μL of 0.5M HCl was added and the plate was read immediately. Results are shown in FIG. 27 for the DNA tile synbody 350; the DNA tile with Apt1 (SEQ ID NO: 20) but not Apt2 (SEQ ID NO: 21) present 352; the DNA tile with Apt2 but not Apt1 (SEQ ID NO: 20) present 356; Apt1 (SEQ ID NO: 20) alone 354; and Apt2 (SEQ ID NO: 21) alone 358. Dissociation constant values estimated from this assay were about 1 nM for the DNA tile synbody, about 10 nM for Apt1 (SEQ ID NO: 20) alone, and more than 1 μM for Apt2 (SEQ ID NO: 21) alone.

[2] = molecular target: T2, transferrin (Homo sapiens, UniProt P02787); experiment: SPR steady-state solution phase KD of candidate affinity elements, transferrin immobilized on Biacore T100 chip; assay type: binding
T2 sequence (P02787 20-698, species assumed): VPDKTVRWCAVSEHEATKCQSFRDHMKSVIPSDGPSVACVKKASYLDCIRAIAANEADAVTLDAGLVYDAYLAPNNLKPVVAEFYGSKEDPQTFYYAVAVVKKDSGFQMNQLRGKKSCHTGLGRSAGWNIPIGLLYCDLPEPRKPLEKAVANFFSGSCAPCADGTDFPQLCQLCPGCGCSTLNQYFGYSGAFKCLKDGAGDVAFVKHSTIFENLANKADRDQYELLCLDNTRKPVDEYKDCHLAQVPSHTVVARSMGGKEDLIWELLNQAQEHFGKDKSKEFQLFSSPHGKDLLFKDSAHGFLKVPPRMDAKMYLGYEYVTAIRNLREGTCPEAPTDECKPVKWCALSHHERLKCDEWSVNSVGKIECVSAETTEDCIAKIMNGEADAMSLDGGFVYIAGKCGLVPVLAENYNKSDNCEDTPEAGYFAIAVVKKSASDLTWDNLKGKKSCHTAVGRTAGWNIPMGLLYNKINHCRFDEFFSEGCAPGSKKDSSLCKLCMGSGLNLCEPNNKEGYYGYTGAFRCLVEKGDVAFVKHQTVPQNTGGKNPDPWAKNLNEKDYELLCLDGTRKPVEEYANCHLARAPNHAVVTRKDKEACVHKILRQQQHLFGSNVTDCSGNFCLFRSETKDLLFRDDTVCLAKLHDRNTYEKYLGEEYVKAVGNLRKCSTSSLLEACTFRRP
Method: Transferrin was immobilized by amine-coupling to the carboxyl-functionalized surface of a Biacore T100 CMS Dextran SPR chip as illustrated in FIG. 11. A 1:1 mixture of EDC (0.4M 1-ethyl-3-(3-dimethylaminopropyl)-carbodiimide in water) and NHS (0.1M N-hydroxysuccinimide in water) was applied 300 at a flow rate of 5 to 10 μl/min for a contact time of about 6 to 10 minutes to activate the surface by conjugating […] 306 to the surface-exposed carboxyl groups. Transferrin 25 μg/ml in immobilization buffer selected for correct pH was then applied 302 at a flow rate of 5 to 10 μl/min for a contact time of about 5 to 10 minutes, allowing the amine functionality on the transferrin 308 to displace the activated NHS ester and bond to the surface via an amide bond. Finally, ethylene diamine (1 M ethylene diamine-HCl at pH 8.5) was applied at a flow rate of 5 to 10 μl/min for a contact time of about 6 to 7 minutes to deactivate any remaining reactive groups on the dextran chip surface. Flow rates and contact times are adjusted as necessary to provide the surface concentration of target desired for the intended application, and may vary by target. In general, for evaluating whether binding occurs, it is preferable to immobilize a relatively large quantity of target, and higher flow rates and/or longer contact times may be used. For determining kinetics, it is preferable to limit the amount of target immobilized so as to minimize rebinding and avidity effects, and lower flow rates and/or contact times may be used.
Candidate affinity elements for the transferrin synbody TRF 19 (SEQ ID NO: 1), TRF21 (SEQ ID NO: 3), TRF23 (SEQ ID NO: 5), TRF24 (SEQ ID NO: 6), TRF25 (SEQ ID NO: 7), and TRF26 (SEQ ID NO: 8) were individually evaluated for solution phase KD with respect to transferrin by SPR analysis. Because the off rates for these polypeptides were very high, KD values were estimated by measuring steady-state response for at least five concentrations in a two-fold dilution series, each concentration tested in duplicate. For each experiment, response data were processed using a reference surface to correct for bulk refractive index changes and any nonspecific binding. Data were also double referenced using responses from blank running buffer injections. Each experiment was conducted at 25° C. using PBST (0.01M Phosphate Buffered Saline, 0.138M NaCl, 0.0027M KCl, 0.05% surfactant Tween20, pH 7.4) as the running buffer on a Biacore T100 instrument. Analytes were injected for 60 s at a flow rate of 30 μl/min. The antigen surfaces were regenerated with 30 s consecutive pulses of NaOH/NaCl (50 mM NaOH in IM NaCl) and Glycine (10 mM glycine —HCl, pH 2.5).

[3] = molecular target: T2, transferrin; experiment: SPR analysis of 1:1 polypeptide pairs for binding to distinct sites on immobilized target; details: SPR response of pair mixture versus single polypeptides
Description: The transferrin target was immobilized on a Biacore T100 SPR chip, and candidate polypeptides were applied in 1:1 mixtures in pairs and response data obtained, in accordance with the methods described in Example 4 above.

[4] = tested on: 8,000 human proteins (GST fusion); experiment: Invitrogen Protoarray Human Protein Microarray (8,000 features), fluorescence intensity of bound ligand; assay type: binding
Method: Two biotinylated anti-TRF synbodies (SYN23-26 and SYN 21-22) were applied to a protein microarray having 8,000 features (Invitrogen Protoarray Human Protein Microarray v. 4.0 for immune response biomarker profiling), each feature comprising a distinct human protein (GST fusion) adsorbed to a nitrocellulose coated slide. Application of the synbodies to the microarray was performed in accordance with manufacturer instructions: (see ProtoArray Human Protein Microarray, Invitrogen, Catalog no. PAH052401, Version B, 15 Dec. 2006, 25-0970, Users Manual.) After blocking the array with 1% BSA/PBS/0.1% Tween for 1 hour at 4 C with gentle shaking, 120 μl of probing buffer (1×PBS, 5 mM mgCl2, 0.5 mM DTT, 0.05% Triton X-100, 5% glycerol, 1% BSA) with synbody was applied to the array. The prescribed cover slip was placed over the array and adjusted to remove air bubbles. The array was incubated in a 50 ml conical tube, printed side up, for 1.5 hours at 4 C without shaking The array was then removed from the conical tube inserted diagonally into the array chamber, kept on ice. 8 ml probing buffer was added to the chamber wall. The cover slip was removed and the array was incubated in probing buffer for 1 minute on ice. […] The array was dried in the dark for 60 minutes at room temperature, after which it was scanned using a fluorescent microarray scanner and data was taken and analyzed.

[5] = estimated from steady-state SPR response, 25° C., PBST pH 7.4, read-out: Solution Phase KD
[6] = restates Table 3, read-out: solution phase affinities for transferrin, range of KD

Substance: 5′-AGTCCGTGGTAGGGCAGGTTGGGGTGACT-3′ [Apt1]
Kd [1]: ~0.01 µM

Kd [2, 5]: ~60 µM
Substance: QYHHFMNLKRQGRAQAYGSC [TRF21]

Kd [2, 5]: ~50 µM
Kd [2, 6]: 50 to 100 µM
binding to distinct sites on target [3]: bind distinct sites on transferrin
Substance: FRGWAHIFFGPHVIYRGGSC [TRF23]

Kd [2, 6]: 50 to 100 µM
binding to distinct sites on target [3]: bind distinct sites on transferrin
Substance: AHKVVPQRQIRHAYNRYGSC [TRF26]

Substance: I: H-FRGWAHIFFGPHVIYRGGSGKC / II: H-AHKVVPQRQIRHAYNRYGSG (amide I:21-II:C) [SYN23-26]
highest affinity target from library of 8,000 [4]: PCCA
targets bound with intensities higher than that of 1C10 for TRF [4]: seven targets

Substance: 5′-GGTTGGTGTGGTTGG-3′ [Apt2]
Kd [1]: > 1 µM

Kd [2, 5]: ~60 µM
Substance: APYAPQQIHYWSTLGFKGSC [TRF25]

Source: patent US9863938B2, “Synthetic antibodies” (ARIZONA BOARD OF REGENTS, A BODY CORPORATE OF THE STATE OF …, priority 2006, dated 2018)
